Measured values reported in paper PMC8632988, “Inhibition of SYK and cSrc kinases can protect bone and cartilage in preclinical models of osteoarthritis and rheumatoid arthritis” (Scientific Reports, 2021).

Assays:
Assay in all cases: Kinase selectivity profile assay
Format in all cases: biochemical
ABL2/ARG = target: T1, ABL2/ARG (Homo sapiens, UniProt P42684); conditions: 500 nM; relative to DMSO; read-out: Residual enzymatic activity
T1 construct: purchased Reaction Biology Corporation (assay service)
How it was run: (§1)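 Radiometric kinase assay run by a standard protocol. Unbound phosphate was removed by washing filters in phosphoric acid, and product radioactivity gave percent remaining kinase activity versus DMSO vehicle reactions. Run in duplicate.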

GRK1 = target: T2, GRK1 (Homo sapiens, UniProt Q15835); conditions: 500 nM; relative to DMSO; read-out: Residual enzymatic activity
T2 construct: purchased Reaction Biology Corporation
How it was run: as §1

ARAF = target: T3, ARAF (Homo sapiens, UniProt P10398); conditions: 500 nM; relative to DMSO; read-out: Residual enzymatic activity
T3 construct: purchased Reaction Biology Corporation
How it was run: as §1

CDK1/cyclin B = target: T4, CDK1/cyclin B (Homo sapiens, UniProt P06493); conditions: 500 nM; relative to DMSO; read-out: Residual enzymatic activity
T4 construct: purchased Reaction Biology Corporation
How it was run: as §1

TEC = target: T5, TEC (Homo sapiens, UniProt P42680); conditions: 500 nM; relative to DMSO; read-out: Residual enzymatic activity
T5 construct: purchased Reaction Biology Corporation
How it was run: as §1

ERK7/MAPK15 = target: T6, ERK7/MAPK15 (Homo sapiens, UniProt Q8TD08); conditions: read-out: Residual enzymatic activity
T6 construct: purchased Reaction Biology Corporation
How it was run: as §1

P38a/MAPK14 = target: T7, P38a/MAPK14 (Homo sapiens, UniProt Q16539); conditions: 500 nM; relative to DMSO; read-out: Residual enzymatic activity
T7 construct: purchased Reaction Biology Corporation
T7 sequence (Q16539 whole entry): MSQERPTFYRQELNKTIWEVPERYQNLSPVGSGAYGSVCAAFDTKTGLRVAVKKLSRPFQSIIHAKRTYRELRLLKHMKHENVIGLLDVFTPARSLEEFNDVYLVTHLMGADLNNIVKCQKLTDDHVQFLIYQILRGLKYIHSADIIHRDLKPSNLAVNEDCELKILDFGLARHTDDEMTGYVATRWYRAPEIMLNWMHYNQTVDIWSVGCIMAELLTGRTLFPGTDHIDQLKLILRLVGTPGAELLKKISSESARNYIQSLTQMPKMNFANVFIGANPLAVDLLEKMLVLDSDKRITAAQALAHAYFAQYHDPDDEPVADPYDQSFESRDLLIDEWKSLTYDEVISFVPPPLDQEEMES
How it was run: as §1

FRK/PTK5 = target: T8, FRK/PTK5 (Homo sapiens, UniProt P42685); conditions: 500 nM; relative to DMSO; read-out: Residual enzymatic activity
T8 construct: purchased Reaction Biology Corporation
How it was run: as §1

DCAMKL2 = target: T9, DCAMKL2 (Homo sapiens, UniProt Q8N568); conditions: 500 nM; relative to DMSO; read-out: Residual enzymatic activity
T9 construct: purchased Reaction Biology Corporation
How it was run: as §1

RIPK3 = target: T10, RIPK3 (Homo sapiens, UniProt Q9Y572); conditions: 500 nM; relative to DMSO; read-out: Residual enzymatic activity
T10 construct: purchased Reaction Biology Corporation
How it was run: as §1

PDGFRb = target: T11, PDGFRb (Homo sapiens, UniProt P09619); conditions: 500 nM; relative to DMSO; read-out: Residual enzymatic activity
T11 construct: purchased Reaction Biology Corporation (Malvern, PA, USA)
How it was run: as §1

CLK1 = target: T12, CLK1 (Homo sapiens, UniProt P49759); conditions: 500 nM; relative to DMSO; read-out: Residual enzymatic activity
T12 construct: purchased Reaction Biology Corporation
T12 sequence (P49759 whole entry): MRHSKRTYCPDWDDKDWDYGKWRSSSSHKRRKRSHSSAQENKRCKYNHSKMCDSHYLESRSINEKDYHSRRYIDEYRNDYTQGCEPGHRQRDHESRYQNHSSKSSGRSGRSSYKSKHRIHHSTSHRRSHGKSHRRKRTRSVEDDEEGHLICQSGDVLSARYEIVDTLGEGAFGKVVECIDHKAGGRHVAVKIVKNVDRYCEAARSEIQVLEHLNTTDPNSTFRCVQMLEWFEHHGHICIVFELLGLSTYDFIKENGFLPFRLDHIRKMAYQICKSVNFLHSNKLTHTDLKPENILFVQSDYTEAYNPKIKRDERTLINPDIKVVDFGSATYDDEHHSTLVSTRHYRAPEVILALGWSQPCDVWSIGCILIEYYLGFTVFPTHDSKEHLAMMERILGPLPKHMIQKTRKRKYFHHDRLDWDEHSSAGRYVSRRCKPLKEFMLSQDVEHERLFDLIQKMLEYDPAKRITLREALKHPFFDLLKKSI
How it was run: as §1

PAK6 = target: T13, PAK6 (Homo sapiens, UniProt Q9NQU5); conditions: 500 nM; relative to DMSO; read-out: Residual enzymatic activity
T13 construct: purchased Reaction Biology Corporation
T13 sequence (Q9NQU5 whole entry): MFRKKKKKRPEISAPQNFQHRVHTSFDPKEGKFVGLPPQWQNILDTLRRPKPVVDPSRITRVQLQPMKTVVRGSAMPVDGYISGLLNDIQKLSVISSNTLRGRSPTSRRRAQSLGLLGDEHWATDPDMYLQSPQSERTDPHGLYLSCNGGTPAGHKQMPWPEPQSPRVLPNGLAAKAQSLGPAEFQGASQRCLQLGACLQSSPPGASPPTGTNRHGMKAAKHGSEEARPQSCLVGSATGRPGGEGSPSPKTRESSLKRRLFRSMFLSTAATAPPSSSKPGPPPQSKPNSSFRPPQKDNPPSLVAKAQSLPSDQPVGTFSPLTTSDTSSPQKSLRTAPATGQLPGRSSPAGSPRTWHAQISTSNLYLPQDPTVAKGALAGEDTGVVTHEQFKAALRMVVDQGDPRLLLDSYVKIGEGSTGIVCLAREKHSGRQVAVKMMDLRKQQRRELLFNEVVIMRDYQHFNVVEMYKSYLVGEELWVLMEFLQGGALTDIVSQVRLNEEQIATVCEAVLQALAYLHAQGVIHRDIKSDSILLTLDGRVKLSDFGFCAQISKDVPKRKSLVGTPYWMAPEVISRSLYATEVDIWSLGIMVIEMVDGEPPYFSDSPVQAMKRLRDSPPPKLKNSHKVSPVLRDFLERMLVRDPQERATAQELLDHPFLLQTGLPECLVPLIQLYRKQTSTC
How it was run: as §1

SNARK/NUAK2 = target: T14, SNARK/NUAK2 (Homo sapiens, UniProt Q9H093); conditions: 500 nM; relative to DMSO; read-out: Residual enzymatic activity
T14 construct: purchased Reaction Biology Corporation
How it was run: as §1

MINK/MINK1 = target: T15, MINK/MINK1 (Homo sapiens, UniProt Q8N4C8); conditions: 500 nM; relative to DMSO; read-out: Residual enzymatic activity
T15 construct: purchased Reaction Biology Corporation
How it was run: as §1

MARK4 = target: T16, MARK4 (Homo sapiens, UniProt Q96L34); conditions: 500 nM; relative to DMSO; read-out: Residual enzymatic activity
T16 construct: purchased Reaction Biology Corporation
How it was run: as §1

CSK = target: T17, CSK (Homo sapiens, UniProt P41240); conditions: 500 nM; relative to DMSO; read-out: Residual enzymatic activity
T17 construct: purchased Reaction Biology Corporation (assay service)
How it was run: as §1

STK33 = target: T18, STK33 (Homo sapiens, UniProt Q9BYT3); conditions: 500 nM; relative to DMSO; read-out: Residual enzymatic activity
T18 construct: purchased Reaction Biology Corporation
T18 sequence (Q9BYT3 whole entry): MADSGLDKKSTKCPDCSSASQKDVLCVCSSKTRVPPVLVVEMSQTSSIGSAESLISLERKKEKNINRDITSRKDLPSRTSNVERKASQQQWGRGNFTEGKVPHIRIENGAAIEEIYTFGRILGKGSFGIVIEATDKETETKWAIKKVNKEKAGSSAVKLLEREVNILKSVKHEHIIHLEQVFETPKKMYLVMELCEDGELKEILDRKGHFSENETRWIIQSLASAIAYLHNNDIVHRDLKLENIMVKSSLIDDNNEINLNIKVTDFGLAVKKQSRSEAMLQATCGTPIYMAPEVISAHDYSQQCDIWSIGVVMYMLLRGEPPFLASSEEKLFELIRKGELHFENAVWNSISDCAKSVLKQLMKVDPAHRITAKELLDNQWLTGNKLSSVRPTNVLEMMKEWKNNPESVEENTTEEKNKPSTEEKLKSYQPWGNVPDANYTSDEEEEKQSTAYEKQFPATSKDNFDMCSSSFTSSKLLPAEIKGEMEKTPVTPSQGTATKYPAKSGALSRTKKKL
How it was run: as §1

GRK4 = target: T19, GRK4 (Homo sapiens, UniProt P32298); conditions: 500 nM; relative to DMSO; read-out: Residual enzymatic activity
T19 construct: purchased Reaction Biology Corporation
How it was run: as §1

ROCK2 = target: T20, ROCK2 (Homo sapiens, UniProt O75116); conditions: 500 nM; relative to DMSO; read-out: Residual enzymatic activity
T20 construct: purchased Reaction Biology Corporation
How it was run: as §1

PKCnu/PRKD3 = target: T21, PKCnu/PRKD3 (Homo sapiens, UniProt O94806); conditions: 500 nM; relative to DMSO; read-out: Residual enzymatic activity
T21 construct: purchased Reaction Biology Corporation
How it was run: as §1

TNK1 = target: T22, TNK1 (Homo sapiens, UniProt Q13470); conditions: 500 nM; relative to DMSO; read-out: Residual enzymatic activity
T22 construct: purchased Reaction Biology Corporation
How it was run: as §1

SGK3/SGKL = target: T23, SGK3/SGKL (Homo sapiens, UniProt Q96BR1); conditions: 500 nM; relative to DMSO; read-out: Residual enzymatic activity
T23 construct: purchased Reaction Biology Corporation
How it was run: as §1

JAK1 = target: T24, JAK1 (Homo sapiens, UniProt P23458); conditions: 500 nM; relative to DMSO; read-out: Residual enzymatic activity
T24 construct: purchased Reaction Biology Corporation
How it was run: as §1

TTBK2 = target: T25, TTBK2 (Homo sapiens, UniProt Q6IQ55); conditions: 500 nM; relative to DMSO; read-out: Residual enzymatic activity
T25 construct: purchased Reaction Biology Corporation
How it was run: as §1

CHK1 = target: T26, CHK1 (Homo sapiens, UniProt O14757); conditions: 500 nM; relative to DMSO; read-out: Residual enzymatic activity
T26 construct: purchased Reaction Biology Corporation
T26 sequence (O14757 whole entry): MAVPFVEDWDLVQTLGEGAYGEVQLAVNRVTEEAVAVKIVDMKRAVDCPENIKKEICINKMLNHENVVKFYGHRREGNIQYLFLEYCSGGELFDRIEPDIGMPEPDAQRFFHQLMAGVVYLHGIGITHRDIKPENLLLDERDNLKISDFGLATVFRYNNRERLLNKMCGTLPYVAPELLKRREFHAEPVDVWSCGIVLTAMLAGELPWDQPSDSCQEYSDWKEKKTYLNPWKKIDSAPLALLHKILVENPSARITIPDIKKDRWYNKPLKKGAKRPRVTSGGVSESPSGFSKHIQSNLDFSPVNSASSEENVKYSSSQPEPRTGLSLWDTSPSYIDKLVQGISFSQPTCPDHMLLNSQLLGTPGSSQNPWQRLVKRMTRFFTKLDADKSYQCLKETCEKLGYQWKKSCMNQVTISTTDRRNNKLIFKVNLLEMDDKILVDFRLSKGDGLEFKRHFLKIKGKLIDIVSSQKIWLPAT
How it was run: as §1

ALK6/BMPR1B = target: T27, ALK6/BMPR1B (Homo sapiens, UniProt O00238); conditions: 500 nM; relative to DMSO; read-out: Residual enzymatic activity
T27 construct: purchased Reaction Biology Corporation
T27 sequence (O00238 14-502): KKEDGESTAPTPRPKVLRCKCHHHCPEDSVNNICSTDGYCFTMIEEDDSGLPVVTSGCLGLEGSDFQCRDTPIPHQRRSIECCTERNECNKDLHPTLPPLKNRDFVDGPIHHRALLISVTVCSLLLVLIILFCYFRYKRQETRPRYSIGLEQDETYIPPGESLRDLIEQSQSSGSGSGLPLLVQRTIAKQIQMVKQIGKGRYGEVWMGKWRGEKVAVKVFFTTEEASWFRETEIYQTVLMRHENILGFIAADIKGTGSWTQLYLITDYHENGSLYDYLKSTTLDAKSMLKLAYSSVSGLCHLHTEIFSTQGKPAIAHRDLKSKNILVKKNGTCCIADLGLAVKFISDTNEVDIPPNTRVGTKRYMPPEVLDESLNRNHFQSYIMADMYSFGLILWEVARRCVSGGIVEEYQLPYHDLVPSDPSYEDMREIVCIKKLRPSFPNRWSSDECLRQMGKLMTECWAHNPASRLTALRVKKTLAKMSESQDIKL
How it was run: as §1

FLT1/VEGFR1 = target: T28, FLT1/VEGFR1 (Homo sapiens, UniProt P17948); conditions: 500 nM; relative to DMSO; read-out: Residual enzymatic activity
T28 construct: purchased Reaction Biology Corporation
T28 sequence (P17948 27-1338): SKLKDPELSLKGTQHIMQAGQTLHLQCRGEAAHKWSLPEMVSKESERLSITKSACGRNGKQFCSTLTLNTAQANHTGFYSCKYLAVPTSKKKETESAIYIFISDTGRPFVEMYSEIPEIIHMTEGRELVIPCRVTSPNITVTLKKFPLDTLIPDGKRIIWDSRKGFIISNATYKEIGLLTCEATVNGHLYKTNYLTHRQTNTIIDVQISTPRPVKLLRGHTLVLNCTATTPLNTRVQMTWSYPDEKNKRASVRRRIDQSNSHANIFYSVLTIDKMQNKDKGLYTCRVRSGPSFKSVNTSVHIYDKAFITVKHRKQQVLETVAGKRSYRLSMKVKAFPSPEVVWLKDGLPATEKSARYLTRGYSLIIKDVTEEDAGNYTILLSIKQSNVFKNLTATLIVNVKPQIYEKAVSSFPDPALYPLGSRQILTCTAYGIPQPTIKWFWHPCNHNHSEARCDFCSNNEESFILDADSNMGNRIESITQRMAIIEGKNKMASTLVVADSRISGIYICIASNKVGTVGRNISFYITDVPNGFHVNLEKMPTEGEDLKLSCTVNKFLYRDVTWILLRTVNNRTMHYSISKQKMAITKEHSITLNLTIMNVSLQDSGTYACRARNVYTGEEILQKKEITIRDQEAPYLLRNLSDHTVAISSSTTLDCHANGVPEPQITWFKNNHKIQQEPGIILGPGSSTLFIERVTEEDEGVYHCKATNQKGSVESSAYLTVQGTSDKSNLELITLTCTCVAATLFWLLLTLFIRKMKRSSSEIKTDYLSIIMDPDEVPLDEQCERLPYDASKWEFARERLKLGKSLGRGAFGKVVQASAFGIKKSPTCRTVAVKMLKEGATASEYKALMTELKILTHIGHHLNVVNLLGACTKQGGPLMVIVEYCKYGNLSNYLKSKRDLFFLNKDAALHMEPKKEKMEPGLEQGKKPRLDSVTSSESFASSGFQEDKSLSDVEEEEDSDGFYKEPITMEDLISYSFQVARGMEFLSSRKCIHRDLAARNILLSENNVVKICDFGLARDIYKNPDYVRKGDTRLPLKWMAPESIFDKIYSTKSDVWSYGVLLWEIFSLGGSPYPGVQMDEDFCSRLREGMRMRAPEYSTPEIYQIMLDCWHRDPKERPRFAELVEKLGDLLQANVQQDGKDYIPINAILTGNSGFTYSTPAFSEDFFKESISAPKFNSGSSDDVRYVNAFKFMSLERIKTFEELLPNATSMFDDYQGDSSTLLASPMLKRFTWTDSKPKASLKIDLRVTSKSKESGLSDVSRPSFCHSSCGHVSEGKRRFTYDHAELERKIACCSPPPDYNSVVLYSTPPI
How it was run: as §1

STK32B/YANK2 = target: T29, STK32B/YANK2 (Homo sapiens, UniProt Q9NY57); conditions: 500 nM; relative to DMSO; read-out: Residual enzymatic activity
T29 construct: purchased Reaction Biology Corporation
How it was run: as §1

CDK1/cyclin E = target: T30, CDK1/cyclin E (Homo sapiens, UniProt P06493); conditions: 500 nM; relative to DMSO; read-out: Residual enzymatic activity
T30 construct: purchased Reaction Biology Corporation
How it was run: as §1

STK32C/YANK3 = target: T31, STK32C/YANK3 (Homo sapiens, UniProt Q86UX6); conditions: 500 nM; relative to DMSO; read-out: Residual enzymatic activity
T31 construct: purchased Reaction Biology Corporation
T31 sequence (Q86UX6 whole entry): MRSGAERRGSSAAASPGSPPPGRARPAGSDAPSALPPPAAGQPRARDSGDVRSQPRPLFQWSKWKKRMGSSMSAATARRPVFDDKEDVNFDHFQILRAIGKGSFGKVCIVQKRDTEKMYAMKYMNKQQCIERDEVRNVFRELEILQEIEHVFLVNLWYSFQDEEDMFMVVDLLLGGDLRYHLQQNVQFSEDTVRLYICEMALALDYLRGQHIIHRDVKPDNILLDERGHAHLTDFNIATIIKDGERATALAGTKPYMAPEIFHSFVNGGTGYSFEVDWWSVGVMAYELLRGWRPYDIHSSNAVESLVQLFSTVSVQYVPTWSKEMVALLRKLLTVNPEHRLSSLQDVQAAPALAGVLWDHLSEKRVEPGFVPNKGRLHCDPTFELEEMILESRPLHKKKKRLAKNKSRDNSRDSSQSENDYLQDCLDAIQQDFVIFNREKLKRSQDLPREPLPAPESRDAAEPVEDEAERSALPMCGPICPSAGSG
How it was run: as §1

ALK4/ACVR1B = target: T32, ALK4/ACVR1B (Homo sapiens, UniProt P36896); conditions: 500 nM; relative to DMSO; read-out: Residual enzymatic activity
T32 construct: purchased Reaction Biology Corporation
How it was run: as §1

BTK = target: T33, BTK (Homo sapiens, UniProt Q06187); conditions: 500 nM; relative to DMSO; read-out: Residual enzymatic activity
T33 construct: purchased Reaction Biology Corporation
How it was run: as §1

PKCepsilon = target: T34, PKCepsilon (Homo sapiens, UniProt Q02156); conditions: 500 nM; relative to DMSO; read-out: Residual enzymatic activity
T34 construct: purchased Reaction Biology Corporation
How it was run: as §1

c-MER = target: T35, c-MER (Homo sapiens, UniProt Q12866); conditions: 500 nM; relative to DMSO; read-out: Residual enzymatic activity
T35 construct: purchased Reaction Biology Corporation
How it was run: as §1

MSSK1/STK23 = target: T36, MSSK1/STK23 (Homo sapiens, UniProt Q9UPE1); conditions: 500 nM; relative to DMSO; read-out: Residual enzymatic activity
T36 construct: purchased Reaction Biology Corporation
How it was run: as §1

DAPK2 = target: T37, DAPK2 (Homo sapiens, UniProt Q9UIK4); conditions: 500 nM; relative to DMSO; read-out: Residual enzymatic activity
T37 construct: purchased Reaction Biology Corporation
How it was run: as §1

FGR = target: T38, FGR (Homo sapiens, UniProt P09769); conditions: 500 nM; relative to DMSO; read-out: Residual enzymatic activity
T38 construct: purchased Reaction Biology Corporation (assay service)
How it was run: as §1

FER = target: T39, FER (Homo sapiens, UniProt P16591); conditions: 500 nM; relative to DMSO; read-out: Residual enzymatic activity
T39 construct: purchased Reaction Biology Corporation
How it was run: as §1

COc1cc(Nc2ncc(F)c(Nc3ccc4c(n3)NC(=O)C(C)(C)O4)n2)cc(OC)c1OC [R406, reference compound]
remaining activity at 0.5 µM (ABL2/ARG): 34.5%
remaining activity at 0.5 µM (GRK1): 96%
remaining activity at 0.5 µM (ARAF): 41%
remaining activity at 0.5 µM (CDK1/cyclin B): 75.6%
remaining activity at 0.5 µM (TEC): 39.4%
remaining activity at 0.5 µM (ERK7/MAPK15): 77.1%
remaining activity at 0.5 µM (P38a/MAPK14): 99.9%
remaining activity at 0.5 µM (FRK/PTK5): 35%
remaining activity at 0.5 µM (DCAMKL2): 91.8%
remaining activity at 0.5 µM (RIPK3): 107%
remaining activity at 0.5 µM (PDGFRb): 6.1%
remaining activity at 0.5 µM (CLK1): 61.7%
remaining activity at 0.5 µM (PAK6): 81.2%
remaining activity at 0.5 µM (SNARK/NUAK2): 59.7%
remaining activity at 0.5 µM (MINK/MINK1): 87.3%
remaining activity at 0.5 µM (MARK4): 46.7%
remaining activity at 0.5 µM (CSK): 20.6%
remaining activity at 0.5 µM (STK33): 41.5%
remaining activity at 0.5 µM (GRK4): 96.8%
remaining activity at 0.5 µM (ROCK2): 77.6%
remaining activity at 0.5 µM (PKCnu/PRKD3): 72.8%
remaining activity at 0.5 µM (TNK1): 9.6%
remaining activity at 0.5 µM (SGK3/SGKL): 100%
remaining activity at 0.5 µM (JAK1): 0%
remaining activity at 0.5 µM (TTBK2): 95.4%
remaining activity at 0.5 µM (CHK1): 78.6%
remaining activity at 0.5 µM (ALK6/BMPR1B): 145%
remaining activity at 0.5 µM (FLT1/VEGFR1): 12.4%
remaining activity at 0.5 µM (STK32B/YANK2): 92%
remaining activity at 0.5 µM (CDK1/cyclin E): 76.5%
remaining activity at 0.5 µM (STK32C/YANK3): 102%
remaining activity at 0.5 µM (ALK4/ACVR1B): 133%
remaining activity at 0.5 µM (BTK): 28.8%
remaining activity at 0.5 µM (PKCepsilon): 95%
remaining activity at 0.5 µM (c-MER): 73.9%
remaining activity at 0.5 µM (MSSK1/STK23): 107%
remaining activity at 0.5 µM (DAPK2): 103%
remaining activity at 0.5 µM (FGR): 15.7%
remaining activity at 0.5 µM (FER): 22.9%
